The values that follow are results of earlier work, collected in patent publication US20240139293A1, “Compositions and Methods for Enhancing Anti-Viral Therapies” (XORTX THERAPEUTICS, INC., priority 2021, published 2024).

Molecules are shown by their SMILES.

This data set has as its system SARS-CoV-2. The conditions noted are these: cited study: SARS-CoV-2 replication in vivo and in vitro.

Turning to `CCCN(CCC)S(=O)(=O)c1ccc(C(=O)O)cc1` [probenecid], the “viral load due to Coronavirus” value is reported as “can decrease viral load”.
